Series [1] is described as follows: Stability of the compound in human plasma assessed as half life at 1 uM by LC-MS/MS analysis. The class given is ADME, cell-free.
Series [2] can be described thus: Binding affinity to human StrepTag-Avi-CRBN-His6-Spy-fused DDB1deltaB mutant complex expressed in baculovirus infected high-five insect cells assessed as labeling of His353 residue at 15 uM measured after 24 hrs by LC-MS analysis relative to control. Conditions: Insect cell.
The target of the next series is Protein cereblon (Homo sapiens, UniProt Q96SW2). As to the kind of experiment: Displacement of BODIPY-lenalidomide from human N-terminal NanoLuc-fused CRBN expressed in HEK293T cells incubated for 2 hrs by NanoBRET assay. The class given is cell-based.
Sequence of Protein cereblon (Q96SW2 whole entry, the tested form may be a part): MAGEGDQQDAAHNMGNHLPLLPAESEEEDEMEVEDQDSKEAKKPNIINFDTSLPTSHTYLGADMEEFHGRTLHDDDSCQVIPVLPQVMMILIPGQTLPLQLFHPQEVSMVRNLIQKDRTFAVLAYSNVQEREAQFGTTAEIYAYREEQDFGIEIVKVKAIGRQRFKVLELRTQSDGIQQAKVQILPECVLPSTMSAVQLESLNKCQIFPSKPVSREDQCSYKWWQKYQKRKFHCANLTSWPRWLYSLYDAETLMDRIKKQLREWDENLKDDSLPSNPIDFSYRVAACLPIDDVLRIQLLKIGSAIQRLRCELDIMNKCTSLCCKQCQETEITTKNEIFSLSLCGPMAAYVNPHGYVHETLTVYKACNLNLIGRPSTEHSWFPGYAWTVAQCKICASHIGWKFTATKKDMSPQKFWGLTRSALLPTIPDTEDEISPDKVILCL
Series [3] in a line: Cytotoxicity against human MOLT-4 cells assessed as reduction in cell viability incubated for 24 hrs by CellTiter Glo Luminescent cell viability assay. In kind it is toxicity, cell-based.
Series [4] in a line: Stability of the compound in human liver microsomes assessed as half life at 1 uM by LC-MS/MS analysis. The class given is ADME, Microsome.
Series [5] can be described thus: Stability of the compound in human hepatocytes assessed as half life at […] by LC-MS/MS analysis. The class given is ADME, cell-based, Hepatocyte.
The test system of a further series is MOLT-4. Description: Induction of protein degradation in human MOLT-4 cells at 1 uM measured after 5 hrs by LC-MS analysis. In kind it is functional, cell-based.
Series [6] in a line: Drug metabolism in human plasma assessed as sulfonyl imidazole motif hydrolysis at 10 uM measured after 120 mins by LC-UV-MS analysis. The class given is ADME, cell-free. As to conditions: 2 h.
Series [7] is described as follows: Drug metabolism in human plasma assessed as glutarimide-hydrolysis at 10 uM measured after 120 mins by LC-UV-MS analysis. Conditions: 2 h. The class given is ADME, cell-free.

Activity calls are given as the source filed them. The calls are words filed in the database; no cut-off is given here. Bounds are passed on as bounds.

As to `Nc1ccn(S(=O)(=O)c2ccc3c(c2)C(=O)N(C2CCC(=O)NC2=O)C3)c(=O)n1` (centres undefined), the half-life at 1 µM in series [1] was above 4.82 h. Further, the Activity in [2] amounted to 55%.
For the molecule `O=C1CCC(N2Cc3ccc(S(=O)(=O)n4cnc(C(F)(F)F)c4)cc3C2=O)C(=O)N1` (centres undefined), the half-life at 1 µM in series [1] turned out to be 0.108 h. The Activity in [2] was determined as 75%.
For `O=C1CCC(N2Cc3ccc(OS(=O)(=O)F)cc3C2=O)C(=O)N1` (centres undefined), in [2], the Activity turned out to be 75%.
Consider `O=C1CCC(N2Cc3ccc(S(=O)(=O)F)cc3C2=O)C(=O)N1` (centres undefined), for which the IC50 at Protein cereblon was 0.0011 µM. In series [2], the Activity was above 95%.
On to `O=C1CCC(N2Cc3ccc(S(=O)(=O)n4ccnc4)cc3C2=O)C(=O)N1` (centres undefined), for which the CC50 at 24 h in [3] is above 10 µM. Moreover, the half-life at 1 µM in series [4] is above 2.42 h; in [1], 1.57 h. Further, in series [2], the Activity is above 95%. In addition, in series [5], the half-life is above 3.62 h. For the same molecule, the outcome in the series on MOLT-4 was inactive.
Consider `O=C1CCC(N2Cc3ccc(S(=O)(=O)n4cc(C(F)(F)F)cn4)cc3C2=O)C(=O)N1` (centres undefined), for which the half-life at 1 µM in series [1] is 0.167 h. Besides, in series [2], the Activity is 90%.
Take `O=C1CCC(N2Cc3ccc(S(=O)(=O)n4ccc(C(F)(F)F)n4)cc3C2=O)C(=O)N1` (centres undefined): the half-life at 1 µM in series [1] is 0.233 h. Besides, the Activity in series [2] turned out to be 90%.
The matching figures for `O=C1CCC(N2Cc3ccc(S(=O)(=O)n4ccc(F)n4)cc3C2=O)C(=O)N1` (centres undefined): 1.92 h and 37%.
Take `Cc1cnn(S(=O)(=O)c2ccc3c(c2)C(=O)N(C2CCC(=O)NC2=O)C3)c1` (centres undefined): the half-life at 1 µM in series [1] is above 4.82 h. In addition, the Activity in [2] is below 5%.
On to `O=C1CCC(N2Cc3ccc(S(=O)(=O)n4cncn4)cc3C2=O)C(=O)N1` (centres undefined), for which, in series [1], the half-life at 1 µM is below 0.0167 h. For the same molecule, the Activity in series [2] stood at 90%.
For the molecule `Cc1cn(S(=O)(=O)c2ccc3c(c2)C(=O)N(C2CCC(=O)NC2=O)C3)c(=O)[nH]c1=O` (centres undefined), the half-life at 1 µM in series [1] is 3.98 h. Further, in series [2], the Activity was 90%.
Take `O=C1CCC(N2Cc3ccc(S(=O)(=O)n4cnc(F)c4)cc3C2=O)C(=O)N1` (centres undefined): the half-life at 1 µM in [1] turned out to be 0.317 h. Moreover, the Activity in series [2] worked out at 90%.
With `O=C1CCC(N2Cc3ccc(S(=O)(=O)n4ccc(=O)[nH]c4=O)cc3C2=O)C(=O)N1` (centres undefined), in series [1], the half-life at 1 µM came to 2.72 h. Further, the Activity in [2] was found to be 90%.
As to `Cc1cn(S(=O)(=O)c2ccc3c(c2)C(=O)N(C2CCC(=O)NC2=O)C3)cn1` (centres undefined), in series [1], the half-life at 1 µM is 4.78 h. In series [2], the Activity is below 5%.
Take `O=C1CCC(N2Cc3ccc(S(=O)(=O)n4cc(F)cn4)cc3C2=O)C(=O)N1` (centres undefined): the half-life at 1 µM in [1] came out at 1.53 h. In addition, the Activity in [2] came to 67%.
On to `O=C1CCC(N2Cc3ccccc3C2=O)C(=O)N1` (centres undefined), for which the Drug metabolism result in series [6] and in [7] was “Metabolite_Detected” in each case. The CC50 at 24 h in series [3] was above 10 µM. The half-life at 1 µM in [4] is above 2.42 h. For the same molecule, the half-life in series [5] is above 3.62 h.
For `O=C1CCC(N2Cc3ccc(S(=O)(=O)n4nccn4)cc3C2=O)C(=O)N1` (centres undefined), the Activity in series [2] amounted to 90%.

For the origin of these results see ChEMBL document CHEMBL5370678, “Covalent Stapling of the Cereblon Sensor Loop Histidine Using Sulfur-Heterocycle Exchange” (ACS Med Chem Lett, 2023).
